Structures are written as SMILES. Converted amounts (≈) assume the structure as drawn.

Holding throughout (type): cell-based
The test system of experiment [1] is E. coli ΔtolC. Briefly: microbe, parasite or virus in culture. The note with it: Escherichia coli, 16 h, read-out: MIC E. coli ΔtolC, small panel, Tables 1a/1b; no visual growth after approx. 16 h. Here is the method: (§1) Cystobactamid derivatives synthesized were tested against relevant Gram negative and positive bacteria of clinical interest. Experimental procedures used for the biological characterization of the compounds are the same as previously described in WO 2016/082934.
(§2) Bacterial strains used in susceptibility assays (minimum inhibitory concentration, MIC) were either part of our internal strain collection or purchased from the German Collection of Microorganisms and Cell Cultures (Deutsche Sammlung von Mikroorganismen und Zellkulturen, DSMZ) and the American Type Culture Collection (ATCC). The susceptible E. coli strain (WT) and fluoroquinolone-resistant mutants E. coli WT-3 and WT-III were kindly provided by Prof Dr. P. Heisig, Pharmaceutical Biology and Microbiology, University of Hamburg, Germany. The efflux-deficient strain P. aeruginosa ΔmexAB was kindly provided by Prof Dr. S. Häußler, Institute for Molecular Bacteriology, TWINCORE, Hannover, Germany. All compounds were prepared as DMSO stocks and MIC values were determined in standard microbroth dilution assays in 96-well MTPs as described in Baumann et al., Angew Chem Int Ed Engl. 2014; 53(52):14605-9. In brief, overnight cultures of bacteria were diluted in either tryptic soy broth (TSB: 1.7% peptone casein, 0.3% peptone soymeal, 0.25% glucose, 0.5% NaCl, 0.25% K2HPO4; pH 7.3; S. pneumoniae and E. faecalis) or cation-adjusted Müller-Hinton Broth (BBL™, BD; all other bacteria) and adjusted to 10^4-10^6 cfu/mL. Bacteria were grown in the presence of the derivatives in serial dilution for approx. 16 h at 30-37° C. MIC values were determined and were defined as the antibiotic concentration at which no visual growth of bacteria was observed.

Experiment [2] concerns P. aeruginosa ΔmexAB. In words: microbe, parasite or virus in culture. Conditions: Pseudomonas aeruginosa, 16 h, read-out: MIC P. aeruginosa ΔmexAB, efflux-deficient strain; small panel, Tables 1a/1b. As to the method: as §1, §2
Experiment [3] deals with E. coli WT DSM-1116. Briefly: MIC, microbroth dilution susceptibility assay. Conditions: Escherichia coli, DSM1116; small panel, Tables 1a/1b; no visual growth after approx. 16 h; read-out: MIC E. coli WT DSM-1116. As to the method: as §1, §2
For orientation: Broth dilution looks for growth in wells or tubes with falling amounts of substance.

In experiment [4] the test system is P. aeruginosa WT PA14. Briefly: MIC, microbroth dilution susceptibility assay. Conditions: Pseudomonas aeruginosa, PA14, small panel, Tables 1a/1b; read-out: MIC P. aeruginosa WT PA14. As to the method: as §1, §2
Experiment [5] concerns S. aureus Newman. Briefly: MIC, microbroth dilution susceptibility assay. The note with it: Staphylococcus aureus, NEWMAN; small panel, Tables 1a/1b; read-out: MIC S. aureus Newman. Here is the method:
as §1, §2

`CC(C)Oc1cc(C(=O)Nc2ccc(C(=O)O)cc2)ccc1NC(=O)c1ccc(NC(=O)[C@H](CC(N)=O)NC(=O)c2ccc(NC(=O)c3ccc([N+](=O)[O-])cc3)cc2)cc1` [Compound 69, (S)-4-(4-(4-(4-amino-2-(4-(4-nitrobenzamido)benzamido)-4-oxobutanamido)benzamido)-3-isopropoxybenzamido)benzoic acid]: the MIC in experiment [1] was 0.06 µg/mL (≈ 0.0735 µM); in experiment [2], 1 µg/mL (≈ 1.23 µM); in experiment [3], > 64 µg/mL; in experiment [4] it was > 64 µg/mL; in experiment [5], > 64 µg/mL.

For `CC(=O)Nc1ccc(C(=O)Nc2ccc(C(=O)N[C@@H](CC(N)=O)C(=O)Nc3ccc(C(=O)Nc4ccc(C(=O)Nc5ccc(C(=O)O)cc5)c(O)c4OC(C)C)cc3)cc2)cc1` [Compound 36, (S)-4-(4-(4-(2-(4-(4-acetamidobenzamido)benzamido)-4-amino-4-oxobutanamido)benzamido)-2-hydroxy-3-isopropoxybenzamido)benzoic acid], the MIC in experiment [1] is 0.06 µg/mL (≈ 0.0711 µM); in experiment [2], > 64 µg/mL; in experiment [3] it was 16 µg/mL (≈ 19 µM); in experiment [4], > 64 µg/mL; in experiment [5], 64 µg/mL (≈ 75.8 µM).

Consider `CC(C)Oc1c(NC(=O)c2ccc(NC(=O)[C@H](CC(N)=O)NC(=O)c3ccc(NC(=O)c4ccc(C#N)cc4)cc3)cc2)ccc(C(=O)N[C@@H]2CONC2=O)c1O` [Compound 93, (S)-2-(4-(4-cyanobenzamido)benzamido)-N1-(4-((3-hydroxy-2-isopropoxy-4-(((R)-3-oxoisoxazolidin-4-yl)carbamoyl)phenyl)carbamoyl)phenyl)succinamide], for which the MIC in experiment [1] was 0.5 µg/mL (≈ 0.644 µM); in experiment [2] it was > 64 µg/mL; in experiment [3], > 64 µg/mL; in experiment [4] it was > 64 µg/mL; in experiment [5] it was > 64 µg/mL.

Turning to `CC(C)Oc1c(NC(=O)c2ccc(NC(=O)[C@H](CC(N)=O)NC(=O)c3ccc(NC(=O)c4ccc(C#N)cc4)cc3)cc2)ccc(C(=O)Nc2cc(C(=O)O)n(C)c2)c1O` [Compound 88, (S)-4-(4-(4-(4-amino-2-(4-(4-cyanobenzamido)benzamido)-4-oxobutanamido)benzamido)-2-hydroxy-3-isopropoxybenzamido)-1-methyl-1H-pyrrole-2-carboxylic acid], the MIC in experiment [1] is < 0.03 µg/mL; in experiment [2], 8 µg/mL (≈ 9.82 µM); in experiment [3] it was 0.5 µg/mL (≈ 0.614 µM); in experiment [4], > 64 µg/mL; in experiment [5], 64 µg/mL (≈ 78.5 µM).

For the compound `Cc1cc(C#N)ccc1C(=O)Nc1ccc(C(=O)N[C@@H](CC(N)=O)C(=O)Nc2ccc(C(=O)Nc3ccc(C(=O)Nc4ccc(C(=O)O)cc4)c(O)c3OC(C)C)cc2)cc1` [Compound 50, (S)-4-(4-(4-(4-amino-2-(4-(4-cyano-2-methylbenzamido)benzamido)-4-oxobutanamido)benzamido)-2-hydroxy-3-isopropoxybenzamido)benzoic acid], the MIC in experiment [1] is 0.03 µg/mL (≈ 0.0363 µM); in experiment [2] it was 2 µg/mL (≈ 2.42 µM); in experiment [3] it was 0.5 µg/mL (≈ 0.605 µM); in experiment [4], > 64 µg/mL; in experiment [5], 64 µg/mL (≈ 77.5 µM).

As to `CC(C)Oc1c(NC(=O)c2ccc(NC(=O)[C@H](CC(N)=O)NC(=O)c3ccc(NC(=O)c4ccc5c(c4)COC5=O)cc3)cc2)ccc(C(=O)Nc2ccc(C(=O)O)cc2)c1O` [Compound 57, (S)-4-(4-(4-(4-amino-4-oxo-2-(4-(1-oxo-1,3-dihydroisobenzofuran-5-carboxamido)benzamido)butanamido)benzamido)-2-hydroxy-3-isopropoxybenzamido)benzoic acid], the MIC is < 0.03 µg/mL in experiment [1]; 1 µg/mL (≈ 1.19 µM) in experiment [2]; < 0.03 µg/mL in experiment [3]; > 64 µg/mL in experiment [4]; 1 µg/mL (≈ 1.19 µM) in experiment [5].

Take `CC(C)Oc1c(NC(=O)c2ccc(NC(=O)[C@H](CC(N)=O)NC(=O)c3ccc(NC(=O)c4ccncc4)cc3)cc2)ccc(C(=O)Nc2ccc(C(=O)O)cc2)c1O` [Compound 55, (S)-4-(4-(4-(4-amino-2-(4-(isonicotinamido)benzamido)-4-oxobutanamido)benzamido)-2-hydroxy-3-isopropoxybenzamido)benzoic acid]: the MIC in experiment [1] is < 0.03 µg/mL; in experiment [2], 2 µg/mL (≈ 2.54 µM); in experiment [3], 1 µg/mL (≈ 1.27 µM); in experiment [4], > 64 µg/mL; in experiment [5], > 64 µg/mL.

As to `CC(C)Oc1c(NC(=O)c2ccc(NC(=O)[C@H](CC(N)=O)NC(=O)c3ccc(NC(=O)c4ccc([N+](=O)[O-])cc4)cc3)cc2)ccc(C(=O)Nc2ccc(C(N)=O)cc2)c1O` [Compound 78, (S)—N1-(4-((4-((4-carbamoylphenyl)carbamoyl)-3-hydroxy-2-isopropoxyphenyl)carbamoyl)phenyl)-2-(4-(4-nitrobenzamido)benzamido)succinamide], the MIC is ≤ 0.03 µg/mL in experiment [1]; > 64 µg/mL in experiment [2]; 32 µg/mL (≈ 38.5 µM) in experiment [3]; > 64 µg/mL in experiment [4]; 64 µg/mL (≈ 77 µM) in experiment [5].

Regarding `CC(C)Oc1c(NC(=O)c2ccc(NC(=O)[C@H](CC(N)=O)NC(=O)c3ccc(NC(=O)c4ccc(NC(N)=O)cc4)cc3)cc2)ccc(C(=O)Nc2ccc(C(=O)O)cc2)c1O` [Compound 46, (S)-4-(4-(4-(4-amino-4-oxo-2-(4-(4-ureidobenzamido)benzamido)butanamido)benzamido)-2-hydroxy-3-isopropoxybenzamido)benzoic acid], the MIC is 0.03 µg/mL (≈ 0.0355 µM) in experiment [1]; 4 µg/mL (≈ 4.73 µM) in experiment [2]; 0.5 µg/mL (≈ 0.592 µM) in experiment [3]; > 64 µg/mL in experiment [4]; 64 µg/mL (≈ 75.8 µM) in experiment [5].

With `CC(C)Oc1c(NC(=O)c2ccc(NC(=O)[C@H](CC(N)=O)NC(=O)c3ccc(NC(=O)c4ccc(NC(=O)c5ccc([N+](=O)[O-])cc5)cc4)cc3)cc2)ccc(C(=O)Nc2ccc(C(=O)O)cc2)c1O` [Compound 47, (S)-4-(4-(4-(4-amino-2-(4-(4-(4-nitrobenzamido)benzamido)benzamido)-4-oxobutanamido)benzamido)-2-hydroxy-3-isopropoxybenzamido)benzoic acid], the MIC in experiment [1] is > 64 µg/mL; in experiment [2] it was > 64 µg/mL; in experiment [3], 2 µg/mL (≈ 2.1 µM); in experiment [4], > 64 µg/mL; in experiment [5], > 64 µg/mL.

With `CC(C)Oc1c(NC(=O)c2ccc(NC(=O)[C@H](CC(N)=O)NC(=O)c3ccc(NC(=O)c4ccc(C#N)cc4)cc3)cc2)ccc(C(=O)Nc2ccn(C)c2)c1O` [Compound 87, (S)-2-(4-(4-cyanobenzamido)benzamido)-N1-(4-((3-hydroxy-2-isopropoxy-4-((1-methyl-1H-pyrrol-3-yl)carbamoyl)phenyl)carbamoyl)phenyl)succinamide], the MIC is < 0.03 µg/mL in experiment [1]; > 64 µg/mL in experiment [2]; > 64 µg/mL in experiment [3]; > 64 µg/mL in experiment [4]; > 64 µg/mL in experiment [5].

As for `CC(C)Oc1c(NC(=O)c2ccc(NC(=O)[C@H](CC(N)=O)NC(=O)c3ccc(NC(=O)c4ccc(C#N)cc4)cc3)cc2)ccc(C(=O)Nc2cccc(C(=O)O)c2)c1O` [Compound 90, (S)-3-(4-(4-(4-amino-2-(4-(4-cyanobenzamido)benzamido)-4-oxobutanamido)benzamido)-2-hydroxy-3-isopropoxybenzamido)benzoic acid], the MIC in experiment [1] is 0.03 µg/mL (≈ 0.037 µM); in experiment [2] it was > 64 µg/mL; in experiment [3], 0.5 µg/mL (≈ 0.616 µM); in experiment [4], > 64 µg/mL; in experiment [5] it was 2 µg/mL (≈ 2.46 µM).

In the case of `CC(C)Oc1c(NC(=O)c2ccc(NC(=O)[C@H](CC(N)=O)NC(=O)c3ccc(NC(=O)c4ccc(F)cc4)cc3)cc2)ccc(C(=O)Nc2ccc(C(=O)O)cc2)c1O` [Compound 39, (S)-4-(4-(4-(4-amino-2-(4-(4-fluorobenzamido)benzamido)-4-oxobutanamido)benzamido)-2-hydroxy-3-isopropoxybenzamido)benzoic acid], the MIC in experiment [1] is 0.5 µg/mL (≈ 0.621 µM); in experiment [2] it was 2 µg/mL (≈ 2.49 µM); in experiment [3], 0.5 µg/mL (≈ 0.621 µM); in experiment [4], > 64 µg/mL; in experiment [5] it was 2 µg/mL (≈ 2.49 µM).

`CO[C@@H](C(N)=O)[C@H](NC(=O)c1ccc(NC(=O)/C(C)=C/c2ccc(C#N)cc2)cc1)C(=O)Nc1ccc(C(=O)Nc2ccc(C(=O)Nc3ccc(C(=O)O)cc3)c(O)c2OC(C)C)cc1` [Compound 123, 4-(4-(4-((2S,3R)-4-amino-2-(4-((E)-3-(4-cyanophenyl)-2-methylacrylamido)benzamido)-3-methoxy-4-oxobutanamido)benzamido)-2-hydroxy-3-isopropoxybenzamido)benzoic acid]: the MIC in experiment [1] was determined as 0.5 µg/mL (≈ 0.567 µM); in experiment [2], 2 µg/mL (≈ 2.27 µM); in experiment [3], 1 µg/mL (≈ 1.13 µM); in experiment [4], 8 µg/mL (≈ 9.07 µM); in experiment [5] it was 4 µg/mL (≈ 4.54 µM).

Values taken from patent publication US11034648B2, “Cystobactamide derivatives” (priority 2017, dated 2021).
